The source made the active and inactive calls. The calls are words filed in the database; no cut-off is given here. Some results are limits rather than exact numbers.

Results on 12 compounds are retold here after ChEMBL document CHEMBL4177585, “Discovery of berberine based derivatives as anti-influenza agent through blocking of neuraminidase” (Bioorg Med Chem, 2017).

The test system of data set [1] is Influenza A virus. Description: Antiviral activity against Influenza A virus (A/Puerto Rico/8/1934(H1N1)) infected in MDCK cells assessed as reduction in virus-induced cytopathogenicity incubated for 48 hrs by SRB assay. Type of data set: functional, organism-based.
Data set [2] concerns the target Neuraminidase (Influenza A virus (A/Puerto Rico/8/1934(H1N1)), UniProt P03468). In words: Inhibition of neuraminidase in influenza A virus (A/Puerto Rico/8/1934(H1N1)) pre-incubated for 30 mins before NA-Star substrate addition for 30 mins by luminescence based assay.
A short description of data set [3]: Cytotoxicity against MDCK cells incubated for 48 hrs assessed as reduction in cell viability by SRB assay. Type of data set: cell-based, Canis lupus familiaris. The conditions noted are these: dog. For orientation: The SRB assay estimates cell density from bound dye.
In data set [4] the test system is Influenza A virus. Description: Antiviral activity against Influenza A virus (A/Puerto Rico/8/1934(H1N1)) infected in MDCK cells assessed as reduction in virus-induced cytopathogenicity at 1 ug/ml pre-incubated for 1 hr with virus before virus infection of cells and measured after 48 hrs by SRB assay. The data set is classed as functional, organism-based.
Data set [5] deals with Influenza A virus. In words: Antiviral activity against Influenza A virus (A/Puerto Rico/8/1934(H1N1)) infected in MDCK cells assessed as reduction in virus-induced cytopathogenicity at 1 ug/ml treated before virus infection and measured after 48 hrs by SRB assay relative to untreated control. Type of data set: functional. (Damage to the host cells serves as the signal in cytopathic effect assays.)

In data set [6] the test system is Influenza B virus. Description: Antiviral activity against Influenza B virus (B/Lee/40) infected in MDCK cells assessed as reduction in virus-induced cytopathogenicity incubated for 48 hrs by SRB assay. The conditions noted are these: B/Lee/1940, MDCK. The data set is classed as functional, organism-based.
The subject of data set [7] is Influenza B virus. In words: Antiviral activity against Influenza B virus (B/Maryland/1/59) infected in MDCK cells assessed as reduction in virus-induced cytopathogenicity incubated for 48 hrs by SRB assay. Type of data set: functional, organism-based.
For data set [8], the system named is Influenza A virus. In words: Antiviral activity against Influenza A virus (A/Victoria/3/1975(H3N2)) infected in MDCK cells assessed as reduction in virus-induced cytopathogenicity incubated for 48 hrs by SRB assay. The data set is classed as functional, organism-based.

Neuraminidase (Influenza A virus (A/Puerto Rico/8/1934(H1N1)), UniProt P03468), sequence (P03468 whole entry): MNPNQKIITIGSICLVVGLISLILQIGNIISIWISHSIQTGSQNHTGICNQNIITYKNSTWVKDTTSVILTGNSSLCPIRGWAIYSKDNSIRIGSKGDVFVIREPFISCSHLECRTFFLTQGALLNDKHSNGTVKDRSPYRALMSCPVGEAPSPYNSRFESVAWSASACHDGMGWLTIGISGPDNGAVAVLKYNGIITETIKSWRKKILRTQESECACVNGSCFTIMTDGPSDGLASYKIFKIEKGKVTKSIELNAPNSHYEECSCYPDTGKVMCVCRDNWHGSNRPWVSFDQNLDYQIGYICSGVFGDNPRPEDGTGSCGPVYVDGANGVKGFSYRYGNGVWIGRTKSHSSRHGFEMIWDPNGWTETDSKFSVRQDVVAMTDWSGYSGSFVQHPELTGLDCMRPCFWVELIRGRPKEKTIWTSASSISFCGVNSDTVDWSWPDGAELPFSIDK

The IC50 is the midpoint of a concentration-inhibition curve. Broadly, the Ki is a dissociation constant, usually derived from enzyme kinetics or from competition with a known ligand. A low value points to higher affinity. In general, CC50 refers to the concentration giving 50% cytotoxicity. Consider `COc1cc(CN2CCN(c3ccc(F)cc3F)CC2)c2cc3[n+](cc2c1O)CCc1cc2c(cc1-3)OCO2.[Cl-]`, for which, in the data set on Influenza A virus [1], the IC50 is 9.92 µg/mL. Further, the affinity in data set [2] corresponds to a Ki of 410 nM. Further, the 50% cytotoxic concentration (CC50) at 48 h in data set [3] came out at 73.9 µg/mL.

As a reminder, the inhibition is the share of the control response that was lost under treatment. For the compound `COc1ccc2cc3[n+](cc2c1OC)CCc1cc2c(cc1-3)OCO2` [BERBERINE], the IC50 in the data set on Influenza A virus [1] is 31.3 µg/mL. Besides, the Ki in data set [2] was 14300 nM. The CC50 at 48 h in data set [3] was 70.2 µg/mL. Also, the outcome with Influenza A virus [4] was Active. Also, the inhibition at 1 µg/mL in the data set on Influenza A virus [5] came to 12.1%.

As for `COc1cc(CN2CCN(c3ccc(Cl)cc3)CC2)c2cc3[n+](cc2c1O)CCc1cc2c(cc1-3)OCO2.[Cl-]`, the IC50 in the data set on Influenza A virus [1] was 45.3 µg/mL. The compound further registered a Ki in data set [2] of 960 nM. In data set [3], the CC50 at 48 h worked out at 480 µg/mL.

For the compound `COc1cc(CN2CCN(c3ccccc3Cl)CC2)c2cc3[n+](cc2c1O)CCc1cc2c(cc1-3)OCO2.[Cl-]`, the IC50 was 6.33 µg/mL in the data set on Influenza B virus [6], 1.63 µg/mL in the data set on Influenza A virus [1], 4.17 µg/mL in the data set with Influenza B virus [7] and 2.98 µg/mL in the data set on Influenza A virus [8]. The Ki in data set [2] was found to be 2650 nM. For the same compound, the CC50 at 48 h in data set [3] was found to be 401 µg/mL. Moreover, in the data set with Influenza A virus [4], the outcome was Active. The inhibition at 1 µg/mL in the data set with Influenza A virus [5] was found to be 22.1%.

Consider `COc1cc(CN2CCN(C(=O)c3ccccc3)CC2)c2cc3[n+](cc2c1O)CCc1cc2c(cc1-3)OCO2.[Cl-]`, for which, in the data set on Influenza A virus [1], the IC50 is above 50 µg/mL. Further, the Ki in data set [2] turned out to be 580 nM. Also, in data set [3], the CC50 at 48 h was determined as 424 µg/mL.

For the compound `COc1cc(CN2CCN(c3ccccc3F)CC2)c2cc3[n+](cc2c1O)CCc1cc2c(cc1-3)OCO2.[Cl-]`, the IC50 with Influenza A virus [1] was 9.16 µg/mL. Besides, in data set [2], the affinity corresponds to a Ki of 5200 nM. The CC50 at 48 h in data set [3] amounted to 68.8 µg/mL.

On to `COc1ccc(N2CCN(Cc3cc(OC)c(O)c4c[n+]5c(cc34)-c3cc4c(cc3CC5)OCO4)CC2)c(OC)c1.[Cl-]`, for which, in the data set with Influenza A virus [1], the IC50 was determined as 47.8 µg/mL. Besides, the affinity in data set [2] corresponds to a Ki of 1590 nM.

With `COc1cc(CN2CCN(c3ccccc3[N+](=O)[O-])CC2)c2cc3[n+](cc2c1O)CCc1cc2c(cc1-3)OCO2.[Cl-]`, the 50% inhibitory concentration (IC50) with Influenza A virus [1] is above 50 µg/mL. Further, the affinity in data set [2] corresponds to a Ki of 1340 nM. For the same compound, in data set [3], the CC50 at 48 h is 230 µg/mL.

For the compound `COc1cc(CN2CCN(c3ncccn3)CC2)c2cc3[n+](cc2c1O)CCc1cc2c(cc1-3)OCO2.[Cl-]`, the IC50 with Influenza A virus [1] came to 2.65 µg/mL. This compound returned an inhibition constant (Ki) in data set [2] of 70 nM. In addition, the CC50 at 48 h in data set [3] amounted to 223 µg/mL.

With `COc1cc(CN2CCN(c3cccc(Cl)c3Cl)CC2)c2cc3[n+](cc2c1O)CCc1cc2c(cc1-3)OCO2.[Cl-]`, the IC50 with Influenza A virus [1] was found to be 8.37 µg/mL. In data set [2], this compound showed an inhibition constant (Ki) of 350 nM. Further, the CC50 at 48 h in data set [3] stood at 63.2 µg/mL.

Take `COc1cc(Cn2c3ccccc3c3ccccc32)c2cc3[n+](cc2c1O)CCc1cc2c(cc1-3)OCO2.[Cl-]`: in the data set with Influenza A virus [1], the IC50 worked out at 9.79 µg/mL. For the same compound, the Ki in data set [2] amounted to 490 nM. Moreover, in data set [3], the half-maximal cytotoxic concentration (CC50) at 48 h is 62.6 µg/mL.

Regarding `COc1cc(CN2CCCCC2)c2cc3[n+](cc2c1O)CCc1cc2c(cc1-3)OCO2.[Cl-]`, the IC50 in the data set with Influenza A virus [1] is above 50 µg/mL. In addition, in data set [2], the affinity corresponds to a Ki of 680 nM. Also, the CC50 at 48 h in data set [3] came out at 1640 µg/mL.
